Target: T1, hMC2 receptor (crude hMC2R membranes from CRE-bla-CHO-K1 cells stably expressing hMC2 receptor and hMRAP accessory protein) (Homo sapiens, UniProt Q01718)
T1 construct: crude membrane fractions
Experiment: hMC2 membrane binding assay ([125I]ACTH (1-39) Tyr23, SPA)
Conditions: displacement of 0.2 nM [125I]ACTH (1-39) Tyr23 from hMC2R membranes, 1.5 hours at room temperature; read-out: MC2R binding potency
Protocol: Crude membrane fractions are prepared from CRE-bla-CHO-K1 cells stably expressing hMC2 receptor and hMRAP accessory protein (Thermo Fisher). The cells are grown to 85-100% confluence on standard tissue culture dishes in GlutaMax DMEM growth media (Gibco) with following additives: 10% dialyzed FBS (Gemini), 0.1 mM NEAA (Gibco), 25 mM HEPES (Gibco), 5 μg/mL blasticidin (Goldbio), 100 μg/mL zeocin (Invitrogen), 600 μg/mL hygromycin (Goldbio). To prepare membranes, cells are scraped and collected in 1× Dulbecco's phosphate buffered saline (Corning) and then pelleted at 1000 RPM's. The cell pellet is reconstituted in membrane preparation buffer (20 mM HEPES, 6 mM MgCl2 and 1 mM EGTA, protease inhibitor tablets (Pierce) adjusted to pH 7.4), homogenized using a dounce homogenizer, and the resulting membrane fraction is pelleted by centrifugation at 12,000 RPM's. The membrane pellet is resuspended in membrane preparation buffer, snap freezed and stored at −80° C. for later use.
Binding Assay for hMC2 Antagonists Protocol:
The hMC2 membrane binding assay utilizes the following components: radiolabel [^125I]ACTH (1-39) Tyr23 (PerkinElmer), wheatgerm agglutinin coated PVT SPA beads (PerkinElmer), crude hMC2R membranes, and compounds. Briefly hMC2R membranes are incubated with SPA beads in binding assay buffer (50 mM HEPES, 5 mM MgCl2, 1 mM CaCl2), 0.20% BSA, protease inhibitor tablets (Pierce) adjusted to pH7.4) prior to assay initiation. […] Assay plates are read using a Top Count NXT and Ki values for compounds are determined using a GraphPad Prism 6 non-linear regression analysis.

T1 sequence (Q01718 whole entry): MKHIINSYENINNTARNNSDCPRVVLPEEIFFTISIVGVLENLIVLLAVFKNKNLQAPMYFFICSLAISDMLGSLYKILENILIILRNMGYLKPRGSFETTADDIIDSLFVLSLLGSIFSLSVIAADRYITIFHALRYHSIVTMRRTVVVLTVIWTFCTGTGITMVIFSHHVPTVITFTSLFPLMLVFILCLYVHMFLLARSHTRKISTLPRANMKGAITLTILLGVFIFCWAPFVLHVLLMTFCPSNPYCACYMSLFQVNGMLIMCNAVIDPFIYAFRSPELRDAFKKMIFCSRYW
T1 sequence (Q8TCY5 whole entry partner): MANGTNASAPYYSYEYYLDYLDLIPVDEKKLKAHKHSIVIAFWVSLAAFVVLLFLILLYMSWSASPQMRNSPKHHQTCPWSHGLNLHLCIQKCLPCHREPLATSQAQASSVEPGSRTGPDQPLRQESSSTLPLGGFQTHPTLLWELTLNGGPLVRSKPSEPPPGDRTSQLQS

Compound	Ki
CN1CC[C@H](NC(=O)C2(c3ccc(-c4ccccc4C4CC4)nc3)CCN(c3ccc(C(F)(F)F)cc3C#N)CC2)C1 [Compound 1-121, 1-[2-cyano-4-(trifluoromethyl)phenyl]-4-[6-(2-cyclopropylphenyl)pyridin-3-yl]-N-[(3S)-1-methylpyrrolidin-3-yl]piperidine-4-carboxamide]	< 10 nM
CN1CC[C@H](NC(=O)C2(c3ccc(-c4cccn4C4CC4)nc3)CCN(c3ccc(C(F)(F)F)cc3C#N)CC2)C1 [Compound 1-158, 1-[2-cyano-4-(trifluoromethyl)phenyl]-4-[6-(1-cyclopropyl-1H-pyrrol-2-yl)pyridin-3-yl]-N-[(3S)-1-methylpyrrolidin-3-yl]piperidine-4-carboxamide]	< 10 nM
CCOc1ncccc1-c1ccc(C2(C(=O)NC[C@@H](N)CO)CCN(c3ccc(C(F)(F)F)cc3C#N)CC2)cn1 [Compound 1-17, N-[(2R)-2-amino-3-hydroxypropyl]-1-[2-cyano-4-(trifluoromethyl)phenyl]-4-{2′-ethoxy-[2,3′-bipyridin]-5-yl}piperidine-4-carboxamide]	< 10 nM
CCOc1ncccc1-c1ccc(C2(C(=O)N[C@@H]3CN4CCC3CC4)CCN(c3ccc(C(F)(F)F)cc3C#N)CC2)cn1 [Compound 1-20, N-[(3S)-1-azabicyclo[2.2.2]octan-3-yl]-1-[2-cyano-4-(trifluoromethyl)phenyl]-4-{2′-ethoxy-[2,3′-bipyridin]-5-yl}piperidine-4-carboxamide]	< 10 nM
Cn1cccc1-c1ccc(C2(C(=O)N[C@H]3CCNC3)CCN(c3ccc(C(F)(F)F)cc3C#N)CC2)cn1 [Compound 1-152, 1-[2-cyano-4-(trifluoromethyl)phenyl]-4-[6-(1-methyl-1H-pyrrol-2-yl)pyridin-3-yl]-N-[(3S)-pyrrolidin-3-yl]piperidine-4-carboxamide]	< 10 nM
CCOc1ncccc1-c1ccc(C2(C(=O)NC3CN(C)CC3O)CCN(c3ccc(C(F)(F)F)cc3C#N)CC2)cn1 (single isomer, unassigned) [Compound 1-41, 1-[2-cyano-4-(trifluoromethyl)phenyl]-4-{2′-ethoxy-[2,3′-bipyridin]-5-yl}-N-[(3S,4S)*-4-hydroxy-1-methylpyrrolidin-3-yl]piperidine-4-carboxamide]	< 10 nM
CN1CC[C@@H](NC(=O)C2(c3ccc(-c4ccccc4OC4CC4)nc3)CCN(c3ccc(C(F)(F)F)cc3C#N)CC2)C1 [Compound 1-89, 1-[2-cyano-4-(trifluoromethyl)phenyl]-4-[6-(2-cyclopropoxyphenyl)pyridin-3-yl]-N-[(3R)-1-methylpyrrolidin-3-yl]piperidine-4-carboxamide]	< 10 nM
CCOc1ncccc1-c1ccc(C2(C(=O)N[C@H]3CCN(C)C3)CCN(c3ccc(C(C)=O)cc3C#N)CC2)cn1 [Compound 1-36, 1-(4-acetyl-2-cyanophenyl)-4-{2′-ethoxy-[2,3′-bipyridin]-5-yl}-N-[(3S)-1-methylpyrrolidin-3-yl]piperidine-4-carboxamide]	< 10 nM
CN1CC[C@@H](NC(=O)C2(c3ccc(-c4cccnc4OC(F)F)nc3)CCN(c3ccc(C(F)(F)F)cc3C#N)CC2)C1 [Compound 1-85, 1-[2-cyano-4-(trifluoromethyl)phenyl]-4-[2′-(difluoromethoxy)-[2,3′-bipyridin]-5-yl]-N-[(3R)-1-methylpyrrolidin-3-yl]piperidine-4-carboxamide]	< 10 nM

More lines, now with the values ahead:

Ki	Compound
< 10 nM	CN1CC[C@H](NC(=O)C2(c3ccc(-c4cccn4C)nn3)CCN(c3ccc(C(F)(F)F)cc3Cl)CC2)C1 [Compound 1-169, 1-[2-chloro-4-(trifluoromethyl)phenyl]-4-[6-(1-methyl-1H-pyrrol-2-yl)pyridazin-3-yl]-N-[(3S)-1-methylpyrrolidin-3-yl]piperidine-4-carboxamide]
< 10 nM	CCOc1ccccc1-c1ncc(C2(C(=O)NCCNC)CCN(c3ccc(C(F)(F)F)cc3Cl)CC2)cc1F [Compound 1-292, 1-[2-chloro-4-(trifluoromethyl)phenyl]-4-[6-(2-ethoxyphenyl)-5-fluoropyridin-3-yl]-N-[2-(methylamino)ethyl]piperidine-4-carboxamide]
< 10 nM	CCOc1ncccc1-c1ccc(C2(C(=O)N[C@@H](C)CNC)CCN(c3ccc(C(F)(F)F)cc3F)CC2)cn1 [Compound 1-321, 4-{2′-ethoxy-[2,3′-bipyridin]-5-yl}-1-[2-fluoro-4-(trifluoromethyl)phenyl]-N-[(2S)-1-(methylamino)propan-2-yl]piperidine-4-carboxamide]
< 10 nM	CN1CC[C@H](OC(=O)NC2(c3ccc(-c4cccn4C)nc3)CCN(c3ccc(C(F)(F)F)cc3C#N)CC2)C1 [Compound 2-42, (3S)-1-methylpyrrolidin-3-yl N-{1-[2-cyano-4-(trifluoromethyl)phenyl]-4-[6-(1-methyl-1H-pyrrol-2-yl)pyridin-3-yl]piperidin-4-yl}carbamate]
< 10 nM	CNCCNC(=O)C1(c2cnc(-c3cccn3C)c(F)c2)CCN(c2ccc(C(F)(F)F)cc2F)CC1 [Compound 1-305, 1-[2-fluoro-4-(trifluoromethyl)phenyl]-4-[5-fluoro-6-(1-methyl-1H-pyrrol-2-yl)pyridin-3-yl]-N-[2-(methylamino)ethyl]piperidine-4-carboxamide]
< 10 nM	COc1ccc(F)cc1-c1ncc(C2(C(=O)N[C@H]3CCN(C)C3)CCN(c3ccc(C(F)(F)F)cc3F)CC2)cc1F [Compound 1-204, 1-[2-fluoro-4-(trifluoromethyl)phenyl]-4-[5-fluoro-6-(5-fluoro-2-methoxyphenyl)pyridin-3-yl]-N-[(3S)-1-methylpyrrolidin-3-yl]piperidine-4-carboxamide]
< 10 nM	COc1ccccc1-c1ncc(C2(NC(=O)N[C@@H]3CCN(C)C3)CCN(c3ccc(C(F)(F)F)cc3C#N)CC2)cc1F [Compound 2-52, 1-{1-[2-cyano-4-(trifluoromethyl)phenyl]-4-[5-fluoro-6-(2-methoxyphenyl)pyridin-3-yl]piperidin-4-yl}-3-[(3R)-1-methylpyrrolidin-3-yl]urea]
< 10 nM	Cn1cccc1-c1ccc(C2(NC(=O)[C@H]3CCNC3)CCN(c3ccc(C(F)(F)F)cc3C#N)CC2)cn1 [Compound 2-44, (3S)—N-{1-[2-cyano-4-(trifluoromethyl)phenyl]-4-[6-(1-methyl-1H-pyrrol-2-yl)pyridin-3-yl]piperidin-4-yl}pyrrolidine-3-carboxamide]
< 10 nM	COc1ccccc1-c1ncc(C2(NC(=O)O[C@@H]3CCN(C)C3)CCN(c3ccc(C(F)(F)F)cc3C#N)CC2)cc1F [Compound 2-50, (3R)-1-methylpyrrolidin-3-yl N-{1-[2-cyano-4-(trifluoromethyl)phenyl]-4-[5-fluoro-6-(2-methoxyphenyl)pyridin-3-yl]piperidin-4-yl}carbamate]
< 10 nM	COc1ncc(F)cc1-c1ncc(C2(C(=O)N[C@H]3CCN(C)C3)CCN(c3ccc(C(F)(F)F)cc3F)CC2)cc1F [Compound 1-210, 4-{3,5′-difluoro-2′-methoxy-[2,3′-bipyridin]-5-yl}-1-[2-fluoro-4-(trifluoromethyl)phenyl]-N-[(3S)-1-methylpyrrolidin-3-yl]piperidine-4-carboxamide]
< 10 nM	CNC[C@H](C)NC(=O)C1(c2ccc(-c3cccnc3OC)nc2)CCN(c2ccc(C(F)(F)F)cc2F)CC1 [Compound 1-306, 1-[2-fluoro-4-(trifluoromethyl)phenyl]-4-{2′-methoxy-[2,3′-bipyridin]-5-yl}-N-[(2S)-1-(methylamino)propan-2-yl]piperidine-4-carboxamide]

Reference: US12492181B2, “Gem-disubstituted piperidine melanocortin subtype-2 receptor (MC2R) antagonists and uses thereof” (Crinetics Pharmaceuticals, Inc., priority 2019, dated 2025)
